In patent EP3509566B1, “COMPOUNDS FOR REDUCING CELLULAR MELANIN CONTENT” (Unilever N.V., priority 2016, dated 2018):
Where two headings read alike, the source gives them in different places.

Legend:
[1] = test system: Neonatal foreskin primary human epidermal melanocytes; assay: Cell viability assay (calcein method); format: cell-based; details: 72 hours
Protocol: (§1) A set of indolyl compounds were purchased from SIGMA-ALDRICH as stocks of 10 mM in 100% DMSO. They were initially examined at 25 uM concentration in cell culture (Table 1) for their ability to reduce melanin content and then, at different doses (Table 2). Neonatal foreskin primary human epidermal melanocytes was sourced from Cascade Biologicals (labelled passage P0). Melanocytes were maintained in Medium 254CF (Cascade Cat. # M-254CF-500) supplemented with human melanocyte growth supplement (Cascade; Cat. # S-002-5), hereafter referred to as MGM. Cells were maintained at 37 °C in a humidified incubator with 5 % CO2 atmosphere. 50,000 cells were seeded in 24 well plate in MGM. After 24 hours, the cultures were treated with various concentrations of test materials and were left undisturbed for a further period of 72 hours. Comparative vehicle controls of 0.25 % (v/v) DMSO were also set up in parallel, simultaneously. At the end of the incubation period, the cell viability was determined using the calcein method. Briefly, cell culture spent media was removed and cells washed once with 0.4 ml of 1x PBS-Ca-Mg solution. […] Plates were covered with aluminium foil and incubated for 30 minutes at 37 °C in the regular CO2 incubator. […] Percentage Melanin content was calculated as the ratio between OD405nm value of any sample to that of DMSO reference sample.

[2] = Cell viability assay (calcein method); format: cell-based, human; details: human, epidermal melanocytes
Protocol: as §1

[3] = test system: Neonatal foreskin primary human epidermal melanocytes; assay: Melanin content assay (OD405nm of cell lysate); format: cell-based
Protocol: A set of indolyl compounds were purchased from SIGMA-ALDRICH as stocks of 10 mM in 100% DMSO. They were initially examined at 25 uM concentration in cell culture (Table 1) for their ability to reduce melanin content and then, at different doses (Table 2). Neonatal foreskin primary human epidermal melanocytes was sourced from Cascade Biologicals (labelled passage P0). Melanocytes were maintained in Medium 254CF (Cascade Cat. # M-254CF-500) supplemented with human melanocyte growth supplement (Cascade; Cat. # S-002-5), hereafter referred to as MGM. Cells were maintained at 37 °C in a humidified incubator with 5 % CO2 atmosphere. 50,000 cells were seeded in 24 well plate in MGM. After 24 hours, the cultures were treated with various concentrations of test materials and were left undisturbed for a further period of 72 hours. Comparative vehicle controls of 0.25 % (v/v) DMSO were also set up in parallel, simultaneously. At the end of the incubation period, the cell viability was determined using the calcein method. […] Cells were lysed by resuspension and incubation (60 °C/one hour.). Then this lysate was transferred to a fresh 384-well plate and measured OD405nm in a TECAN M1000 plate reader (estimate of relative melanin content). […] Percentage Melanin content was calculated as the ratio between OD405nm value of any sample to that of DMSO reference sample.

[4] = 3.125 µM, 72 hours, Table 2, fresh batch
[5] = 6.25 µM, 72 hours, Table 2, fresh batch
[6] = 12.5 µM, 72 hours, Table 2, fresh batch
[7] = 25 µM, 72 hours, Table 1, 100 = 0.25% DMSO, read-out: % Viability
[8] = 50 µM, 72 hours, Table 2, fresh batch
[9] = 25 µM, 72 hours, Table 2, fresh batch
[10] = Homo sapiens, Melanocyte, 72 h, 25 µM, 72 hours, Table 1, normalized melanin content, read-out: 100* (%Melanin/% Viability)
[11] = Homo sapiens, Melanocyte, 72 h, 25 µM, 72 hours, Table 1, read-out: % reduction in Melanin
[12] = Homo sapiens, Melanocyte, 72 h, 25 µM, 72 hours, Table 1, relative to DMSO, read-out: % Melanin
[13] = Homo sapiens, Melanocyte, 72 h, 25 µM, 72 hours, Table 2, fresh batch, read-out: 100* (% Melanin/%Viability)
[14] = Homo sapiens, Melanocyte, 72 h, 25 µM, 72 hours, Table 2, fresh batch, read-out: % Melanin
[15] = Homo sapiens, Melanocyte, 72 h, 25 µM, 72 hours, Table 2, fresh batch, read-out: % reduction in Melanin

Question: Which “Calcein Fluorescence” value ([1]; 3.125 µM, Table 2, fresh batch) does the source give for `CC(Cc1c[nH]c2ccccc12)NC(=O)OCCCl` (stereo not shown) [Compound #1, 2-chloroethyl [2-(1H-indol-3-yl)-1-methylethyl] carbamate] here?
Answer: 94 arbitrary units

Question: What about the “Calcein Fluorescence” value ([1]; 6.25 µM, Table 2, fresh batch) of the same molecule?
Answer: 96.6 arbitrary units

Question: And the “Calcein Fluorescence” value ([1]; 12.5 µM, Table 2, fresh batch)?
Answer: 93.4 arbitrary units

Question: And the “Calcein Fluorescence” value ([1]; 25 µM, Table 1)?
Answer: 95 arbitrary unit

Question: What about the “Calcein Fluorescence” value ([1]; 25 µM, Table 2, fresh batch of melanocytes) of the same molecule?
Answer: 93.7 arbitrary units

Question: And the “Calcein Fluorescence” value ([1]; 50 µM, Table 2, fresh batch)?
Answer: 88.3 arbitrary units

Question: What about the viability at 72 h, 3.125 µM [2, 4] of the same molecule?
Answer: 94%

Question: And the viability at 72 h, 6.25 µM [2, 5]?
Answer: 96.6%

Question: What about the viability at 72 h, 12.5 µM [2, 6] of the same molecule?
Answer: 93.4%

Question: What about the viability at 72 h, 25 µM [2, 7] of the same molecule?
Answer: 95%

Question: What about the viability at 72 h, 25 µM ([2]; 25 µM, 72 hours, Table 2, fresh batch, read-out: % Viability) of the same molecule?
Answer: 93.7%

Question: And the viability at 72 h, 50 µM [2, 8]?
Answer: 88.3%

Question: What about the “% reduction in Melanin” value [3, 4] of the same molecule?
Answer: Nil

Question: What about the “OD405nm (Melanin)” value [3, 4] of the same molecule?
Answer: 0.168

Question: And the “OD405nm (Melanin)” value [3, 5]?
Answer: 0.146

Question: What about the “OD405nm (Melanin)” value [3, 6] of the same molecule?
Answer: 0.134

Question: What about the “OD405nm (Melanin)” value ([3]; 25 µM, 72 hours, Table 1) of the same molecule?
Answer: 0.093

Question: What about the “OD405nm (Melanin)” value [3, 9] of the same molecule?
Answer: 0.122

Question: And the “melanin reduction (in words)” value ([3]; 25 µM, Table 1)?
Answer: significant melanin reduction

Question: What about the “OD405nm (Melanin)” value [3, 8] of the same molecule?
Answer: 0.103

Question: And the activity at 3.125 µM ([3]; Homo sapiens, Melanocyte, 72 h, 3.125 µM, 72 hours, Table 2, fresh batch, read-out: 100* (% Melanin/%Viability))?
Answer: 102%

Question: What about the activity at 3.125 µM ([3]; Homo sapiens, Melanocyte, 72 h, 3.125 µM, 72 hours, Table 2, fresh batch, read-out: % Melanin) of the same molecule?
Answer: 96%

Question: And the activity at 6.25 µM ([3]; Homo sapiens, Melanocyte, 72 h, 6.25 µM, 72 hours, Table 2, fresh batch, read-out: 100* (% Melanin/%Viability))?
Answer: 85.9%

Question: What about the activity at 6.25 µM ([3]; Homo sapiens, Melanocyte, 72 h, 6.25 µM, 72 hours, Table 2, fresh batch, read-out: % Melanin) of the same molecule?
Answer: 83%

Question: And the inhibition at 6.25 µM ([3]; Homo sapiens, Melanocyte, 72 h, 6.25 µM, 72 hours, Table 2, fresh batch, read-out: % reduction in Melanin)?
Answer: 14.1%

Question: And the activity at 12.5 µM ([3]; Homo sapiens, Melanocyte, 72 h, 12.5 µM, 72 hours, Table 2, fresh batch, read-out: 100* (% Melanin/%Viability))?
Answer: 82.4%

Question: And the activity at 12.5 µM ([3]; Homo sapiens, Melanocyte, 72 h, 12.5 µM, 72 hours, Table 2, fresh batch, read-out: % Melanin)?
Answer: 77%

Question: And the inhibition at 12.5 µM ([3]; Homo sapiens, Melanocyte, 72 h, 12.5 µM, 72 hours, Table 2, fresh batch, read-out: % reduction in Melanin)?
Answer: 17.6%

Question: What about the activity at 25 µM [3, 10] of the same molecule?
Answer: 87%

Question: And the inhibition at 25 µM [3, 11]?
Answer: 13%

Question: And the activity at 25 µM [3, 12]?
Answer: 83%

Question: And the activity at 25 µM [3, 13]?
Answer: 74.7%

Question: What about the activity at 25 µM [3, 14] of the same molecule?
Answer: 70%

Question: And the inhibition at 25 µM [3, 15]?
Answer: 25.3%

Question: What about the activity at 50 µM ([3]; Homo sapiens, Melanocyte, 72 h, 50 µM, 72 hours, Table 2, fresh batch, read-out: 100* (% Melanin/%Viability)) of the same molecule?
Answer: 66.8%

Question: What about the activity at 50 µM ([3]; Homo sapiens, Melanocyte, 72 h, 50 µM, 72 hours, Table 2, fresh batch, read-out: % Melanin) of the same molecule?
Answer: 59%

Question: And the inhibition at 50 µM ([3]; Homo sapiens, Melanocyte, 72 h, 50 µM, 72 hours, Table 2, fresh batch, read-out: % reduction in Melanin)?
Answer: 33.2%

Question: And the “efficacy compared to Kojic acid (in words)” value ([3]; various doses, Table 2)?
Answer: more efficacious at concentrations much lower than Kojic acid

Question: Which results are given for `CC(=O)NC(C)Cc1c[nH]c2ccccc12` (stereo not shown) [Compound #2, N-[2-(1H-indol-3-yl)-1-methylethyl]acetamide, reference compound]?
Answer: Calcein Fluorescence ([1]; 25 µM, Table 1): 98 arbitrary unit; viability at 72 h, 25 µM [2, 7]: 98%; OD405nm (Melanin) ([3]; 25 µM, 72 hours, Table 1): 0.108; melanin reduction (in words) ([3]; 25 µM, Table 1): comparatively insignificant; activity at 25 µM [3, 10]: 98%; inhibition at 25 µM [3, 11]: 2%; activity at 25 µM [3, 12]: 96%

Question: For `CC(=O)O.CC(Cc1c[nH]c2ccccc12)NC(=O)CN` (stereo not shown) [Compound #3, 2-amino-N-[2-(1H-indol-3-yl)-1-methylethyl]acetamide acetate], which “Calcein Fluorescence” value ([1]; 25 µM, Table 1) is on record?
Answer: 111 arbitrary unit

Question: And the viability at 72 h, 25 µM [2, 7]?
Answer: 111%

Question: What about the “OD405nm (Melanin)” value ([3]; 25 µM, 72 hours, Table 1) of the same molecule?
Answer: 0.111

Question: And the “melanin reduction (in words)” value ([3]; 25 µM, Table 1)?
Answer: significant melanin reduction

Question: And the activity at 25 µM [3, 10]?
Answer: 89%

Question: And the inhibition at 25 µM [3, 11]?
Answer: 11%

Question: And the activity at 25 µM [3, 12]?
Answer: 99%

Question: What does the source list for `O=c1cc(CO)occ1O` [Kojic acid, reference compound]?
Answer: viability at 72 h, 25 µM ([2]; % Viability): 102%; viability at 72 h, 250 µM ([2]; % Viability): 96%; viability at 72 h, 500 µM ([2]; % Viability): 96%; OD405nm (Melanin) [3, 9]: 0.177; OD405nm (Melanin) ([3]; 250 µM, 72 hours, Table 2, fresh batch): 0.152; OD405nm (Melanin) ([3]; 500 µM, 72 hours, Table 2, fresh batch): 0.139; activity at 25 µM [3, 13]: 99.3%; activity at 25 µM [3, 14]: 101%; inhibition at 25 µM [3, 15]: 0.7%; activity at 250 µM ([3]; Homo sapiens, Melanocyte, 72 h, 250 µM, 72 hours, Table 2, fresh batch, read-out: 100* (% Melanin/%Viability)): 90.4%; activity at 250 µM ([3]; Homo sapiens, Melanocyte, 72 h, 250 µM, 72 hours, Table 2, fresh batch, read-out: % Melanin): 87%; inhibition at 250 µM ([3]; Homo sapiens, Melanocyte, 72 h, 250 µM, 72 hours, Table 2, fresh batch, read-out: % reduction in Melanin): 9.6%; activity at 500 µM ([3]; Homo sapiens, Melanocyte, 72 h, 500 µM, 72 hours, Table 2, fresh batch, read-out: 100* (% Melanin/%Viability)): 83.3%; activity at 500 µM ([3]; Homo sapiens, Melanocyte, 72 h, 500 µM, 72 hours, Table 2, fresh batch, read-out: % Melanin): 80%; inhibition at 500 µM ([3]; Homo sapiens, Melanocyte, 72 h, 500 µM, 72 hours, Table 2, fresh batch, read-out: % reduction in Melanin): 16.7%
